Source: patent US11826400B2, “Neuregulin based compositions and uses thereof for preventing, treating or delaying the myocardial ischemia-reperfusion injury” (ZENSUN (SHANGHAI) SCIENCE & TECHNOLOGY LIMITED, priority 2010, dated 2023)

Test system: myocardial ischemia reperfusion in rat
Test: Therapeutic effect on myocardial ischemia reperfusion in rat (coronary ligation 45 min, reperfusion 2 h, TCC staining of heart sections)
Assay type: in vivo, Wistar rats
Settings: Group D
Procedure: Wistar rats (male, 200˜240 g) were divided into groups and administered with different dosages of rhNRG-1, placebo or rhThymosin-β4 (as shown in Table 1) after anaesthetized with intra-abdominal injection of 20% urethane (5 ml/kg). Thirty minutes after the drug started to be given to the rats, the anterior descending limb of the left coronary artery was ligated for 45 minutes to cause partial myocardium turned white obviously in the ligation area. After that the ligation thread was loosen to keep coronary blood flow for 2 hours and then take out the heart rapidly and wash vascular fat away with normal saline, and then freeze the heart in −30° C. for one hour.
Cut the heart parallelly from apex to base along coronary sulcus to myocardium sections with the thickness of 1 mm, and then put them into TCC dye liquor for 20 min in 37° C. in a shaker. After staining extra dye was washed immediately with water, and then the sections were put into 4% formalin for one hour. Photo and analyze the total size and the infarction size of were analyzed with Image Analysis Software. Infarction size ratio equals to the ratio of the infarction size and the total size of the myocardium section.

rhThymosin-β4: produced by Northland (Beijing) Bio-Technology Co Ltd, batch number: 20050728; comparator drug of Group D (SDKPDMAEIEKFDKSKLKKTETQEKNPLPSKETIEQEKQAGES; Thymosin beta-4; UniProt P62328 2-44, looked up)
Infarction size compared with other groups (2.5 mg/kg single intraperitoneal injection): no significant difference with other groups
The myocardium infarction size ratio (2.5 mg/kg single intraperitoneal injection 30 min before ligation, infarction size / total size of myocardium section, mean ± spread, 2.5 mg/kg): 0.151±0.030
